Literature values in paper PMC3816732, “Database-Guided Discovery of Potent Peptides to Combat HIV-1 or Superbugs” (Pharmaceuticals, 2013).
“Also recorded” adds a separate entry of the source. Read-outs that look alike come from different tables or passages of the source. Bridges are numbered along the chain shown (N, C = ends). Where no end group is shown, it is not given here.

How the values were obtained:
HIV-1 = tested on: HIV-1
Text: For example, proline-rich AMPs are known to interact with bacterial heat shock proteins.

[1] = tested on: Staphylococcus aureus USA300 LAC; parameters: method as in 2 sources, ref 52, 53 = [52]; PMID 20086159; doi:10.1128/AAC.01448-09; 52. Wang G. Watson K.M. Peterkofsky A. Buckheit R.W. Jr. Identification of novel human immunodeficiency virus type 1 inhibitory peptides based on the antimicrobial peptide database Antimicrob. Agents || [53]; PMID 22445495; doi:10.1016/j.ijantimicag.2012.02.003; 53. Menousek J. Mishra B. Hanke M.L. Heim C.E. Kielian T. Wang G. Database screening and in vivo efficacy of antimicrobial peptides against methicillin-resistant Staphylococcus aureus USA300 Int. J. A ||| ref 55 = [55]; PMID 22803960; doi:10.1021/ja305644e; 55. Mishra B. Wang G. Ab initio design of potent anti-MRSA peptides based on database filtering technology J. Am. Chem. Soc. 2012 134 12426 12429 10.1021/ja305644e 22803960 PMC3412535; conditions: for S. aureus USA300 (MIC, μM): S. aureus USA300 LAC (MRSA), database screening; for activity against S. aureus USA300 (MRSA), in words: database-screened peptides
Text: In fact, the annual frequency of deaths from MRSA is rapidly increasing and has surpassed those caused by HIV/AIDS. Therefore, there is a need to develop new treatments to control MRSA. To identify new compounds against MRSA USA300 LAC, we also assayed the antibacterial activity of the same 30 peptides used for screening anti-HIV-1 peptides above. […] For example, proline-rich AMPs are known to interact with bacterial heat shock proteins.

Bacillus subtilis = conditions: database-screened peptides
Text: [The procedure below names another organism; the source lists this organism under the same test.] (§1) The spread of MRSA from the clinical setting to the communities is worrisome. In fact, the annual frequency of deaths from MRSA is rapidly increasing and has surpassed those caused by HIV/AIDS. Therefore, there is a need to develop new treatments to control MRSA. To identify new compounds against MRSA USA300 LAC, we also assayed the antibacterial activity of the same 30 peptides used for screening anti-HIV-1 peptides above. […] We referred to this unique method as ab initio design to distinguish it from the de novo methods above. Our design comprises two major modules. The first module consists of an activity filter that allows us to obtain a list of peptides with desired activity (e.g., antibacterial, antifungal, antiviral, antiparasitic, or anticancer). To obtain compounds to kill S. aureus, we retrieved all AMPs with activity against Gram-positive bacteria as model peptides. The second module is composed of a series of parameter filters ...

Pseudomonas aeruginosa = conditions: database-screened peptides
Text: [The procedure below names another organism; the source lists this organism under the same test.] as §1

Escherichia coli = conditions: database-screened peptides
Text: as §1, with “... || As a second example, we also aimed to identify the minimal active region in a longer peptide. Human cathelicidin LL-37 is a 37-residue peptide starting with a pair of leucines. Our studies produced a library of model peptides with distinct antimicrobial activity. KR-12 is identified as the minimal antibacterial peptide corresponding to residues 18–29 of human LL-37. It is active against E. coli but not HIV-1 [56, 71]. However, FK-13, a core antimicrobial peptide with one more phenylalanine at the N-terminus than KR-12 [72], is active against both HIV-1 and E. coli.” for “...”

Staphylococcal biofilm = conditions: catheter embedded in mice
E. coli K12 = tested on: E. coli K12; parameters: method as in 5 sources, ref [9] = [9]; PMID 18957441; doi:10.1093/nar/gkn823; 9. Wang G. Li X. Wang Z. The updated antimicrobial peptide database and its application in peptide design Nucleic Acids Res. 2009 37 D933 D937 10.1093/nar/gkn823 18957441 PMC2686604 ||| ref [52] = [52]; PMID 20086159; doi:10.1128/AAC.01448-09; 52. Wang G. Watson K.M. Peterkofsky A. Buckheit R.W. Jr. Identification of novel human immunodeficiency virus type 1 inhibitory peptides based on the antimicrobial peptide database Antimicrob. Agents ||| ref [54] = [54]; doi:10.4172/2155-6113.S2-003; 54. Wang G. Buckheit K.W. Mishra B. Lushnikova T. Buckheit R.W. Jr. De Novo Design of Antiviral and Antibacterial Peptides with Varying Loop structures J. AIDS Clin. Res. 2011 S2:003 10.4172/2155-6113 ||| ref 9, 52, 54 = [9]; PMID 18957441; doi:10.1093/nar/gkn823; 9. Wang G. Li X. Wang Z. The updated antimicrobial peptide database and its application in peptide design Nucleic Acids Res. 2009 37 D933 D937 10.1093/nar/gkn823 18957441 PMC2686604 || [52]; PMID 20086159; doi:10.1128/AAC.01448-09; 52. Wang G. Watson K.M. Peterkofsky A. Buckheit R.W. Jr. Identification of novel human immunodeficiency virus type 1 inhibitory peptides based on the antimicrobial peptide database Antimicrob. Agents || [54]; doi:10.4172/2155-6113.S2-003; 54. Wang G. Buckheit K.W. Mishra B. Lushnikova T. Buckheit R.W. Jr. De Novo Design of Antiviral and Antibacterial Peptides with Varying Loop structures J. AIDS Clin. Res. 2011 S2:003 10.4172/2155-6113 ||| ref 9, 54 = [9]; PMID 18957441; doi:10.1093/nar/gkn823; 9. Wang G. Li X. Wang Z. The updated antimicrobial peptide database and its application in peptide design Nucleic Acids Res. 2009 37 D933 D937 10.1093/nar/gkn823 18957441 PMC2686604 || [54]; doi:10.4172/2155-6113.S2-003; 54. Wang G. Buckheit K.W. Mishra B. Lushnikova T. Buckheit R.W. Jr. De Novo Design of Antiviral and Antibacterial Peptides with Varying Loop structures J. AIDS Clin. Res. 2011 S2:003 10.4172/2155-6113; conditions: for MIC: peptide potency against E. coli K12
Text: Our initial attempt was a stepwise design based on the bioinformatics results from our database.

[2] = tested on: herpes simplex virus type-2 (HSV-2); parameters: method as in doi:10.4172/2155-6113.S2-003
Text: These GLRC peptides (Table 3) are made of only amino acids G, L, R, and C. […] O ...

[3] = peptide potency against HIV-1, database-guided designed peptides

Substance | S. aureus USA300 (MIC, μM) [1] [µM] | activity against S. aureus USA300 (MRSA), in words [1] | activity against B. subtilis, in words (Bacillus subtilis) | activity against P. aeruginosa, in words (Pseudomonas aeruginosa) | activity against E. coli, in words (Escherichia coli) | EC50 (HIV-1; [3]) [µM] | MIC (E. coli K12) [µM] | other results
Ascaphin-8 | 3.1 | effective | active | active | active |  |  | activity against HIV-1, in words (HIV-1): effective; EC50 (HIV-1; read-out: HIV-1 (EC50)): 1.2 µM; activity against S. aureus USA300 (MRSA), in words ([1]; listed as Aascaphin-8): active
FFGKVLKLIRKIF-NH2 [DASamP1] | 3.1 | active; also recorded: effective | not | not | not |  |  | activity against HIV-1, in words (HIV-1): effective; EC50 (HIV-1; read-out: HIV-1 (EC50)): 0.63 µM; prevention of Staphylococcal biofilm formation (Staphylococcal biofilm): able to prevent Staphylococcal biofilm formation
GCRRLCGRLGRRLCRLLCR (also: bicyclic or more (positions not given here)) [GLRC-4] |  |  |  |  |  | 30.7 | 60 | Stability (% left) (chymotrypsin; stability to the action of chymotrypsin): 9.7 % left
GCRRLLGRLLRRLGRLLCR (disulfide 2-18 (inferred)) [GLRC-1] |  |  |  |  |  | > 43.8 | 30 | Stability (% left) (chymotrypsin): 20.8 % left
GLKKLLGKLLKKLGKLLLK [GLK-19, 19-residue peptide containing only G, L, and K] |  |  |  |  |  | > 47.5 | 10 | activity against HIV-1, in words (HIV-1; GLK/GLR/GLRC designed peptides): not
GLRCRLGRLLRRLGRCLLR (disulfide 4-16 (inferred)) [GLRC-2] |  |  |  |  |  | 0.79 | 30 | activity against HIV-1, in words (HIV-1; GLK/GLR/GLRC designed peptides): most effective; inhibitory effect on HSV-2 [2]: inhibitory effect; Stability (% left) (chymotrypsin): 63.3 % left; stability to the action of chymotrypsin, in words (chymotrypsin): most stable
GLRRLCGRLGRRLCRLLLR (disulfide 6-14 (inferred)) [GLRC-3] |  |  |  |  |  | 2.8 | 7.5 | Stability (% left) (chymotrypsin): 1.4 % left
GLRRLLGRLLRRLGRLLLR [GLR-19] |  |  |  |  |  | 4.4 | >120 | activity against HIV-1, in words (HIV-1; GLK/GLR/GLRC designed peptides): HIV-1 inhibitory; activity against E. coli, in words (E. coli K12; GLK/GLR designed peptides): lost activity; Stability (% left) (chymotrypsin): 14.5 % left
IKWKKLLRAAKRIL-NH2 [DASamP2, derivative of polybia-MPI, […]-amide] | 6.2 | active | active | active | active |  |  | 
Lycotoxin I: spider antimicrobial peptide (IWLTALKFLGKHAAKHLAKQQLSKL; UniProt P61507 1-25, looked up) | 3.1 | active | active | active | active |  |  | 
Maculatin 1.3 | 6.2 | active | active | not | not |  |  | 
Piscidin 1 | 3.1 | effective | active | active | active |  |  | activity against S. aureus USA300 (MRSA), in words ([1]; listed as piscidin 1): active
Ponericin L2 [reference compound] |  |  |  |  |  |  |  | EC50 (HIV-1; read-out: HIV-1 (EC50), database screening of 30 APD peptides): 1.4 µM
drosocin [reference compound] |  |  |  |  |  |  |  | activity against HIV-1, in words (HIV-1): did not show any activity
